Data on 19 compounds can be found in paper PMC9897792, “Discovery of novel 2-(4-(benzyloxy)-5-(hydroxyl) phenyl) benzothiazole derivatives as multifunctional MAO-B inhibitors for the treatment of Parkinson’s disease” (Journal of Enzyme Inhibition and Medicinal Chemistry, 2023).

Where “and” joins values, the source holds several entries; their conditions need not be identical. Identical values can stand only once. Like-named read-outs stand apart in the source and are kept apart here.

Data set [1] has as its target T1, MAO-A (Homo sapiens, UniProt P21397).
T1 sequence (P21397 1-527): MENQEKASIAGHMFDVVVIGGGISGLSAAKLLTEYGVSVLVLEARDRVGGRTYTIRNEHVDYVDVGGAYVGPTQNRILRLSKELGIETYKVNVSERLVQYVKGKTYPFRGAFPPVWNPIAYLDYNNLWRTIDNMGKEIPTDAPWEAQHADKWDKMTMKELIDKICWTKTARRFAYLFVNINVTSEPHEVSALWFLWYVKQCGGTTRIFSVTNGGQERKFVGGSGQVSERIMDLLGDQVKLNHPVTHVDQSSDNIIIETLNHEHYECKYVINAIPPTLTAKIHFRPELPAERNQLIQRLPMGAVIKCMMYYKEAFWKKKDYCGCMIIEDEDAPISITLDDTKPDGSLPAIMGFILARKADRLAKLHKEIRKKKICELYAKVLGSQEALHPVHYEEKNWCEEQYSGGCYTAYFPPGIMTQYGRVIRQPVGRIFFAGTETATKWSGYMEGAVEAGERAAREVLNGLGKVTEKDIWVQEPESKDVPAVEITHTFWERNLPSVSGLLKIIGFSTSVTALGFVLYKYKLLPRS
Description: MAO-A inhibition, kynuramine method. In kind it is biochemical. As to conditions: for inhibition at 10 µM: read-out: %Inhibition MAO-A.

Data set [2] can be described thus: Oxygen radical absorbance capacity assay with fluorescein (ORAC-FL). As to conditions: Trolox as standard. How it is done: Oxygen radical absorbance capacity assay which used fluorescein (ORAC-FL) was performed to measure the antioxidant activities of 2-(4-(benzyloxy)-5-(hydroxyl) phenyl) benzothiazole derivatives. […] It reflected that introduction of alkyl substituents on benzyloxy ring was more beneficial for the improvement of in vitro antioxidant activity. However, the position and number of substituents seem to have little influence on the antioxidative activities.
Test compounds solution (20 µL, 10 µM) and fluorescein solution (120 µL, 250 nM) were added to a black 96-wells plate in order. The mixture was incubated for 15 min at 37 °C. Then, AAPH solution (60 µL, 40 mM) was added through an automatic sampler. The fluorescence was recorded with excitation and emission wavelengths at 485 and 535 nm on the multifunctional enzyme marker (Thermo Scientific), and the area under the curve (AUC) was calculated automatically. Trolox was used as a reference, and the antioxidant activities of the compounds were expressed as Trolox equivalent. The test compound solution was replaced with PBS (20 µL) in blank well. The antioxidant activities of the test compounds were calculated by the formula: [(AUCsample − AUCblank)/(AUCtrolox − AUCblank)] × [(Trolox concentration/test sample concentration)].

Data set [3] has as its target T2, MAO-B (Homo sapiens, UniProt P27338).
T2 sequence (P27338 1-520): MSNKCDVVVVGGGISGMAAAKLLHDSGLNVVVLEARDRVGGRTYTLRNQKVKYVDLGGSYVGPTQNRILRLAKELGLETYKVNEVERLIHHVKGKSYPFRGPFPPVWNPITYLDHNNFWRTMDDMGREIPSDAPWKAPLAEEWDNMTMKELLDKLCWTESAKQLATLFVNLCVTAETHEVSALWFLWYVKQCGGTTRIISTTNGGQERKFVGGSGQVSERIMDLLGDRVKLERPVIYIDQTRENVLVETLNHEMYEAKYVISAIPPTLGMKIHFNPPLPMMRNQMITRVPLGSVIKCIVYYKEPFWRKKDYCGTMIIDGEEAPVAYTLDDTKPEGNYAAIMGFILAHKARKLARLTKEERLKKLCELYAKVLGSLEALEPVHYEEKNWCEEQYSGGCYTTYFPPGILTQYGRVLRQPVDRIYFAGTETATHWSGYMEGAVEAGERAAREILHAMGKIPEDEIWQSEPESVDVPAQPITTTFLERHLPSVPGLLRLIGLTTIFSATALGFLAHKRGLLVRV
As to the kind of experiment: MAO-B inhibition, kynuramine method. In kind it is biochemical.

The conditions of data set [4]: PAMPA-BBB literature values ref 1 (Di et al., Eur. J. Med. Chem. 2003, 38, 223); cited from earlier work. On the technique in general: In PAMPA a lipid-coated filter parts donor from acceptor wells.
Data set [5] deals with T2, MAO-B. As to the kind of experiment: Reversibility study of MAO-B inhibition by dialysis method. In kind it is biochemical. As to conditions: for MAO-B inhibitory mode: classified by MAO-B catalytic activity in dialysis group; for MAO-B catalytic activity, undialysis group / MAO-B catalytic activity, dialysis group: test compound 4 × IC50; for MAO-B catalytic activity, undialysis group: 4 °C for 24 h without dialysis; for MAO-B catalytic activity, dialysis group: dialysis 24 h.
Description: The mixture was incubated at 37 °C for 30 min and transferred to dialysis bag (MWCO: 10 000, flattening width: 24 mm, length: 8–10 cm). Then, this dialysis bag was placed in 200 ml PBS for 24 h, and the outer PBS was replaced with fresh at 3 and 7 h, respectively. As for the undialysis group, the mixture was placed at 4 °C for 24 h. After dialysis, the mixtures (40 µL) in the dialysis bag were taken out to measure the catalytic activity, and the test method was similar with the inhibition experiment of MAOs. […] The test compound solution was replaced with PBS buffer at the same volume in the blank group.

Setting [6] is: at the concentration of 10.0 μM, n.a. = no active, percent inhibition <5.0%.

The term inhibition denotes the drop in the measured response relative to a control, in per cent. As a reminder, the IC50 is the concentration that inhibits the measured activity by half.

On to `Oc1cc(OCc2ccccc2)ccc1-c1nc2ccccc2s1` [3a, 2-(Benzo[d]thiazol-2-yl)-5-(benzyloxy)phenol], for which, in data set [1] (setting [6]), the inhibition at 10 µM is 24.83 ± 0.11%. The same compound yielded an ORAC in data set [2] of 2.13 ± 0.05 Trolox equivalents. For the same compound, half-maximal inhibition in data set [3] (IC50) required 3930 ± 259 nM.
The like results for `Oc1cc(OCc2ccccc2F)ccc1-c1nc2ccccc2s1` [3b, 2-(Benzo[d]thiazol-2-yl)-5-((2-fluorobenzyl)oxy)phenol] were, in that order, 14.25 ± 0.07%, 2.32 ± 0.02 Trolox equivalents and 1670 ± 146 nM.
The like results for `Oc1cc(OCc2ccccc2Cl)ccc1-c1nc2ccccc2s1` [3c, 2-(Benzo[d]thiazol-2-yl)-5-((2-chlorobenzyl)oxy)phenol] were, in that order, 19.58 ± 0.06%, 2.26 ± 0.09 Trolox equivalents and 2900 ± 31 nM.
For `Oc1cc(OCc2cccc(F)c2)ccc1-c1nc2ccccc2s1` [3d, 2-(Benzo[d]thiazol-2-yl)-5-((3-fluorobenzyl)oxy)phenol], in that order: 18.41 ± 0.05%, 2.24 ± 0.10 Trolox equivalents and 526 ± 24 nM.
For `Oc1cc(OCc2cccc(Cl)c2)ccc1-c1nc2ccccc2s1` [3e, 2-(Benzo[d]thiazol-2-yl)-5-((3-chlorobenzyl)oxy)phenol], the inhibition at 10 µM in data set [1] (setting [6]) was found to be 31.6 ± 0.28%. In addition, the ORAC in data set [2] was 2.31 ± 0.07 Trolox equivalents. For the same compound, in data set [3], the 50% inhibitory concentration (IC50) worked out at 1050 ± 83 nM.
Compound `Oc1cc(OCc2cccc(C(F)(F)F)c2)ccc1-c1nc2ccccc2s1` [3f, 2-(Benzo[d]thiazol-2-yl)-5-((3-(trifluoromethyl)benzyl)oxy)phenol] yielded an ORAC in data set [2] of 2.25 ± 0.07 Trolox equivalents. The same compound came in with an IC50 in data set [3] of 951 ± 62 nM.
For `COc1cccc(COc2ccc(-c3nc4ccccc4s3)c(O)c2)c1` [3g, 2-(Benzo[d]thiazol-2-yl)-5-((3-methoxybenzyl)oxy)phenol], in that order: 2.30 ± 0.04 Trolox equivalents and 1520 ± 97 nM.
For the compound `Oc1cc(OCc2ccc(Cl)cc2)ccc1-c1nc2ccccc2s1` [3i, 2-(Benzo[d]thiazol-2-yl)-5-((4-chlorobenzyl)oxy)phenol], in data set [1] (setting [6]), the inhibition at 10 µM was 47.14 ± 0.21%. This compound also gave an ORAC in data set [2] of 2.23 ± 0.06 Trolox equivalents. Moreover, the IC50 in data set [3] was found to be 314 ± 10 nM.
For `Cc1ccc(COc2ccc(-c3nc4ccccc4s3)c(O)c2)cc1` [3j, 2-(Benzo[d]thiazol-2-yl)-5-((4-methylbenzyl)oxy)phenol], in that order: 34.32 ± 0.09%, 2.39 ± 0.14 Trolox equivalents and 1940 ± 78 nM.
Take `CC(C)(C)c1ccc(COc2ccc(-c3nc4ccccc4s3)c(O)c2)cc1` [3k, 2-(Benzo[d]thiazol-2-yl)-5-((4-(tert-butyl)benzyl)oxy)phenol]: the ORAC in data set [2] is 2.48 Trolox equivalents and 2.48 ± 0.13 Trolox equivalents. The compound further returned an IC50 in data set [3] of 3407 ± 32 nM.
Consider `O=[N+]([O-])c1ccc(COc2ccc(-c3nc4ccccc4s3)c(O)c2)cc1` [3l, 2-(Benzo[d]thiazol-2-yl)-5-((4-nitrobenzyl)oxy)phenol], for which the inhibition at 10 µM in data set [1] (setting [6]) was 25.16 ± 0.13%. The same compound displayed an ORAC in data set [2] of 2.14 ± 0.06 Trolox equivalents. The IC50 in data set [3] came to 784 ± 28 nM.
The like results for `Oc1cc(OCc2ccc(F)c(F)c2)ccc1-c1nc2ccccc2s1` [3m, 2-(Benzo[d]thiazol-2-yl)-5-((3,4-difluorobenzyl)oxy)phenol] were, in that order, 47.52 ± 0.36%, 2.24 ± 0.11 Trolox equivalents and 423 ± 9 nM.
In the case of `Oc1cc(OCc2ccc(Cl)c(Cl)c2)ccc1-c1nc2ccccc2s1` [3n, 2-(Benzo[d]thiazol-2-yl)-5-((3,4-dichlorobenzyl)oxy)phenol], the IC50 was 9800 ± 190 nM in data set [1] and 970 ± 11 nM in data set [3]. The ORAC in data set [2] came to 2.21 ± 0.09 Trolox equivalents.
Regarding `Oc1cc(OCc2ccc(F)c(Cl)c2)ccc1-c1nc2ccccc2s1` [3o, 2-(Benzo[d]thiazol-2-yl)-5-((3-chloro-4-fluorobenzyl)oxy)phenol], in data set [1] (setting [6]), the inhibition at 10 µM was determined as 49.9 ± 0.53%. The ORAC in data set [2] was 2.27 ± 0.05 Trolox equivalents. This compound displayed an IC50 in data set [3] of 521 ± 7 nM.
As to `O=C1Nc2ccc(Cl)cc2C(c2ccccc2)=NC1O` (centres unmarked) [Oxazepam], the “Pe (Bibl)” value in data set [4] is 10 ×10⁻⁶ cm/s.
Turning to `CN1C(C(=O)Nc2ccccn2)=C(O)c2ccccc2S1(=O)=O` [Piroxicam], the “Pe (Bibl)” value in data set [4] was 2.5 ×10⁻⁶ cm/s.
As for `C#CCN[C@@H]1CCc2ccccc21` [Rasagiline], in data set [5], the MAO-B inhibitory mode entry is “irreversible (irreversible inhibition: MAO-B catalytic activity ≤ 20%)”; the “MAO-B catalytic activity, undialysis group” value was found to be 2.7%; the “MAO-B catalytic activity, dialysis group” value is listed as 4.2%.
On to `C[C@H](NCc1ccc(OCc2cccc(F)c2)cc1)C(N)=O` [Safinamide], for which, in data set [1], the inhibition at 10 µM was determined as 24.9 ± 0.04%. The ORAC in data set [2] amounted to 1.12 ± 0.01 Trolox equivalents. Moreover, in data set [5], the MAO-B inhibitory mode result was “reversible (reversible inhibition: MAO-B catalytic activity ≥ 80%)”; the “MAO-B catalytic activity, undialysis group” value turned out to be 39.3%; the “MAO-B catalytic activity, dialysis group” value came out at 93.0%.
On to `Cn1c(=O)c2[nH]cnc2n(C)c1=O` [Theophylline], for which the “Pe (Bibl)” value in data set [4] was 0.12 ×10⁻⁶ cm/s.
